Laboratory results taken from PubChem BioAssay (NCI).
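All cell lines were grown in 96-well plates and treated with compound for 48 hours. At the GI50, growth is halved. At the TGI there is no net growth.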

Key:
Assay in all cases: growth of human tumour cells (NCI), 48 h
A498 renal = tested on: A498 renal
A549 NSCLC = tested on: A549 NSCLC
ACHN renal = tested on: ACHN renal
BT-549 breast = tested on: BT-549 breast
CAKI-1 renal = tested on: CAKI-1 renal
COLO 205 colon = tested on: COLO 205 colon
DU-145 prostate = tested on: DU-145 prostate
EKVX NSCLC = tested on: EKVX NSCLC
HCC-2998 colon = tested on: HCC-2998 colon
HCT-15 colon = tested on: HCT-15 colon
HL-60(TB) leukemia = tested on: HL-60(TB) leukemia
HOP-62 NSCLC = tested on: HOP-62 NSCLC
HOP-92 NSCLC = tested on: HOP-92 NSCLC
HS 578T breast = tested on: HS 578T breast
HT29 colon = tested on: HT29 colon
IGROV1 ovarian = tested on: IGROV1 ovarian
K-562 leukemia = tested on: K-562 leukemia
KM12 colon = tested on: KM12 colon
LOX IMVI melanoma = tested on: LOX IMVI melanoma
M14 melanoma = tested on: M14 melanoma
MALME-3M melanoma = tested on: MALME-3M melanoma
MCF7 breast = tested on: MCF7 breast
MDA-MB-231 breast = tested on: MDA-MB-231 breast
MDA-MB-435 = tested on: MDA-MB-435
MDA-MB-468 breast = tested on: MDA-MB-468 breast
MOLT-4 leukemia = tested on: MOLT-4 leukemia
NCI-H226 lung = tested on: NCI-H226 lung
NCI-H23 lung = tested on: NCI-H23 lung
NCI-H460 lung = tested on: NCI-H460 lung
NCI-H522 lung = tested on: NCI-H522 lung
NCI/ADR-RES ovarian = tested on: NCI/ADR-RES ovarian
OVCAR-3 ovarian = tested on: OVCAR-3 ovarian
OVCAR-4 ovarian = tested on: OVCAR-4 ovarian
OVCAR-5 ovarian = tested on: OVCAR-5 ovarian
OVCAR-8 ovarian = tested on: OVCAR-8 ovarian
PC-3 prostate = tested on: PC-3 prostate
RPMI-8226 leukemia = tested on: RPMI-8226 leukemia
RXF 393 renal = tested on: RXF 393 renal
SF-268 CNS = tested on: SF-268 CNS
SF-295 CNS = tested on: SF-295 CNS
SF-539 CNS = tested on: SF-539 CNS
SK-MEL-2 melanoma = tested on: SK-MEL-2 melanoma
SK-MEL-28 melanoma = tested on: SK-MEL-28 melanoma
SK-MEL-5 melanoma = tested on: SK-MEL-5 melanoma
SK-OV-3 ovarian = tested on: SK-OV-3 ovarian
SN12C renal = tested on: SN12C renal
SNB-19 CNS = tested on: SNB-19 CNS
SNB-75 CNS = tested on: SNB-75 CNS
SR leukemia = tested on: SR leukemia
SW-620 colon = tested on: SW-620 colon
T-47D breast = tested on: T-47D breast
TK-10 renal = tested on: TK-10 renal
U251 CNS = tested on: U251 CNS
UACC-257 melanoma = tested on: UACC-257 melanoma
UACC-62 melanoma = tested on: UACC-62 melanoma
UO-31 renal = tested on: UO-31 renal

CC(=O)Nc1ccc(-c2cn(-c3cccc(C(=O)Nc4ccc(Cl)c(C(F)(F)F)c4)c3)nn2)cn1
GI50 (A498 renal): 2900 nM
TGI (A498 renal): 5460 nM
GI50 (A549 NSCLC): 1860 nM
TGI (A549 NSCLC): 3860 nM
GI50 (ACHN renal): 1930 nM
TGI (ACHN renal): 4040 nM
GI50 (BT-549 breast): 1690 nM
TGI (BT-549 breast): 3500 nM
GI50 (CAKI-1 renal): 1780 nM
TGI (CAKI-1 renal): 3540 nM
GI50 (COLO 205 colon): 1470 nM
TGI (COLO 205 colon): 3450 nM
GI50 (DU-145 prostate): 2830 nM
TGI (DU-145 prostate): 8430 nM
GI50 (EKVX NSCLC): 1890 nM
TGI (EKVX NSCLC): 3920 nM
GI50 (HCC-2998 colon): 1870 nM
TGI (HCC-2998 colon): 4020 nM
GI50 (HCT-15 colon): 2020 nM
TGI (HCT-15 colon): 4280 nM
GI50 (HL-60(TB) leukemia): 824 nM
TGI (HL-60(TB) leukemia): > 100000 nM
GI50 (HOP-62 NSCLC): 1670 nM
TGI (HOP-62 NSCLC): 3490 nM
GI50 (HOP-92 NSCLC): 1580 nM
TGI (HOP-92 NSCLC): 3600 nM
GI50 (HS 578T breast): 2030 nM
TGI (HS 578T breast): 7010 nM
GI50 (HT29 colon): 1430 nM
TGI (HT29 colon): 3090 nM
GI50 (IGROV1 ovarian): 1700 nM
TGI (IGROV1 ovarian): 3360 nM
GI50 (K-562 leukemia): 1320 nM
TGI (K-562 leukemia): 5890 nM
GI50 (KM12 colon): 1810 nM
TGI (KM12 colon): 6370 nM
GI50 (LOX IMVI melanoma): 1390 nM
TGI (LOX IMVI melanoma): 2720 nM
GI50 (M14 melanoma): 1120 nM
TGI (M14 melanoma): 3460 nM
GI50 (MALME-3M melanoma): 559 nM
TGI (MALME-3M melanoma): 1950 nM
GI50 (MCF7 breast): 1820 nM
TGI (MCF7 breast): 4120 nM
GI50 (MDA-MB-231 breast): 1090 nM
TGI (MDA-MB-231 breast): 2390 nM
GI50 (MDA-MB-435): 1390 nM
TGI (MDA-MB-435): 3050 nM
GI50 (MDA-MB-468 breast): 1450 nM
TGI (MDA-MB-468 breast): 3020 nM
GI50 (MOLT-4 leukemia): 2620 nM
TGI (MOLT-4 leukemia): 7990 nM
GI50 (NCI-H226 lung): 1870 nM
TGI (NCI-H226 lung): 3780 nM
GI50 (NCI-H23 lung): 1520 nM
TGI (NCI-H23 lung): 2980 nM
GI50 (NCI-H460 lung): 1500 nM
TGI (NCI-H460 lung): 3050 nM
GI50 (NCI-H522 lung): 1710 nM
TGI (NCI-H522 lung): 3600 nM
GI50 (NCI/ADR-RES ovarian): 3500 nM
TGI (NCI/ADR-RES ovarian): 17800 nM
GI50 (OVCAR-3 ovarian): 1920 nM
TGI (OVCAR-3 ovarian): 3620 nM
GI50 (OVCAR-4 ovarian): 2530 nM
TGI (OVCAR-4 ovarian): 7390 nM
GI50 (OVCAR-5 ovarian): 1930 nM
TGI (OVCAR-5 ovarian): 4860 nM
GI50 (OVCAR-8 ovarian): 2020 nM
TGI (OVCAR-8 ovarian): 4660 nM
GI50 (PC-3 prostate): 1830 nM
TGI (PC-3 prostate): 5210 nM
GI50 (RPMI-8226 leukemia): 2500 nM
TGI (RPMI-8226 leukemia): 34700 nM
GI50 (RXF 393 renal): 1690 nM
TGI (RXF 393 renal): 3500 nM
GI50 (SF-268 CNS): 2300 nM
TGI (SF-268 CNS): 5730 nM
GI50 (SF-295 CNS): 1510 nM
TGI (SF-295 CNS): 2910 nM
GI50 (SF-539 CNS): 1440 nM
TGI (SF-539 CNS): 2820 nM
GI50 (SK-MEL-2 melanoma): 1650 nM
TGI (SK-MEL-2 melanoma): 3780 nM
GI50 (SK-MEL-28 melanoma): 1350 nM
TGI (SK-MEL-28 melanoma): 2820 nM
GI50 (SK-MEL-5 melanoma): 1900 nM
TGI (SK-MEL-5 melanoma): 4300 nM
GI50 (SK-OV-3 ovarian): 2010 nM
TGI (SK-OV-3 ovarian): 5170 nM
GI50 (SN12C renal): 1770 nM
TGI (SN12C renal): 3490 nM
GI50 (SNB-19 CNS): 2240 nM
TGI (SNB-19 CNS): 4700 nM
GI50 (SNB-75 CNS): 1610 nM
TGI (SNB-75 CNS): 4470 nM
GI50 (SR leukemia): 1860 nM
TGI (SR leukemia): > 100000 nM
GI50 (SW-620 colon): 1570 nM
TGI (SW-620 colon): 3290 nM
GI50 (T-47D breast): 2470 nM
TGI (T-47D breast): 7930 nM
GI50 (TK-10 renal): 2300 nM
TGI (TK-10 renal): 4680 nM
GI50 (U251 CNS): 1850 nM
TGI (U251 CNS): 3590 nM
GI50 (UACC-257 melanoma): 1560 nM
TGI (UACC-257 melanoma): 3500 nM
GI50 (UACC-62 melanoma): 1290 nM
TGI (UACC-62 melanoma): 2790 nM
GI50 (UO-31 renal): 1640 nM
TGI (UO-31 renal): 3540 nM
